This note sets out measurements from publication PMC8041276 (ACS Chemical Neuroscience, 2021).

Series [1] concerns the target T1, serotonin 5-HT2C receptor (Homo sapiens, UniProt P28335).
T1 construct: Eurofins Cerep (contract assay)
T1 sequence (P28335 33-458): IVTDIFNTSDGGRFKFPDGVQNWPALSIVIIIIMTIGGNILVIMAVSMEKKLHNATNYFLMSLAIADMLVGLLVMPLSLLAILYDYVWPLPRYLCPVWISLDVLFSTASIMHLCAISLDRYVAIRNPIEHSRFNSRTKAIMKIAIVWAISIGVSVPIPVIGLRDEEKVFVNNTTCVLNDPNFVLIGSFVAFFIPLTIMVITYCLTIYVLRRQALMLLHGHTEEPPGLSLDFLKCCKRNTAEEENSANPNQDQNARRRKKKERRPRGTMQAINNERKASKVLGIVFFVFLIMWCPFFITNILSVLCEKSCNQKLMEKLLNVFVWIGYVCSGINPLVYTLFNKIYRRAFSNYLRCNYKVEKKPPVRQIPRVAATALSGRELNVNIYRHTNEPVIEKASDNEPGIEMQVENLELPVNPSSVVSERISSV
Nature of the series: Eurofins Cerep off-target binding, % inhibition at 1 μM. How it is done:
(§1) Additionally, the affinity of compound 27 at the adrenergic α1A, muscarinic M1, histaminergic H1, dopaminergic D3, serotoninergic 5-HT2C, 5-HT3 receptors, serotonin transporter (SERT), and the human ether-a-go-go-related gene (hERG) channel were evaluated in Eurofins Cerep.

Another series has as its target T2, α1A adrenoreceptor (Homo sapiens, UniProt P35348).
T2 construct: Eurofins Cerep (contract assay)
T2 sequence (P35348 1-466): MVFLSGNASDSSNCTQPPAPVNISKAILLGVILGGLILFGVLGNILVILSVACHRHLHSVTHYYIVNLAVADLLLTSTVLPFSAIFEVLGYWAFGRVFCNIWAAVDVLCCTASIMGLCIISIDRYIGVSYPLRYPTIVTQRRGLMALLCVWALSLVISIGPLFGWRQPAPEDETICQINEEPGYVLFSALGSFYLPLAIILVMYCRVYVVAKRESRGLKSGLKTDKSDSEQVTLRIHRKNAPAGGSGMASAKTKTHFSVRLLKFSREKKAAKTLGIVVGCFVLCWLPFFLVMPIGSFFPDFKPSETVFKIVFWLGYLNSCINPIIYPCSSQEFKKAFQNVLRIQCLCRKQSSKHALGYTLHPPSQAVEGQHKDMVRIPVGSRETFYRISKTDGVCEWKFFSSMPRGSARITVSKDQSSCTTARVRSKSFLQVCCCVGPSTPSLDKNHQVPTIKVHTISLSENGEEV
The description is as above. The method, then: as §1

The target in a further series is T3, CYP3A4 (Homo sapiens, UniProt P08684).
T3 construct: purchased Promega (Madison, WI, USA)
Briefly: CYP3A4 P450-Glo luminescent inhibition assay. Type of series: in vitro ADME. As to conditions: 0.01–25 μM. The text has this: The luminescent CYP3A4 P450-Glo and CYP2D6 P450-Glo assays and protocols were provided by Promega (Madison, WI, USA). The P450-Glo systems based on the conversion proluciferins, derivatives of beetle luciferin [(4S)-4,5-dihydro-2-(6′-hydroxy-2′-benzothiazolyl)-4-thiazolecarboxylic acid] into D-luciferin were catalyzed by respective CYP isoform. D-Luciferin is formed and detected in a second reaction with the luciferin detection reagent (LDR). The amount of light produced in the second reaction is proportional to CYP activity.
The stock solutions (10 mM) of the references ketoconazole (KE), quinidine (QD), and examined compounds were performed in DMSO. The 4× concentrated dilutions were prepared before the assays. […]
The CYPs, proluciferin, and examined compounds (25 μL/well) were preincubated first for 5 min, and next the NADPH regeneration system was added (25 μL) to start the reaction. […] The control reactions for measuring the 100% of CYPs activity and minus-CYP negative control reactions for measure background luminescence were also prepared. […] Finally, LDR was added (50 μL/well), and after 20 min of incubation in room temperature the luminescence signal was measured with a microplate reader (EnSpire, PerkinElmer) in luminescence mode. […] The IC50 values and were calculated using GraphPad Prism 5 software.

In a further series the test system is HepG2 cells. Nature of the series: LDH assay, hepatotoxicity in HepG2 cells. Type of series: cell-based, human. As to conditions: HepG2, 24 h, 0.1–25 μM. The method, then: Human hepatocellular carcinoma cells (HepG2) were cultured using standard procedures (protocol from ATCC). Cells were cultured in Eagle’s minimum essential medium (EMEM) in flasks with an area of 25 cm^2 (Falcon), supplemented with 10% of fetal bovine serum (FBS, Life Technologies) with the addition of 100 IU/mL penicillin (Sigma-Aldrich) and 100 μg/mL streptomycin (Sigma-Aldrich) and incubated at 37 °C in a humidified atmosphere with 5% CO2.
Cells were seeded at density 2 × 10^4 cells/per well in […] plates. After 24 h, compound 27 and reference standard DOX (highly cytotoxic agent) were added to final concentrations of 0.1–150 μM. After 24 h incubation, plates were centrifuged (200g, 2 min) and 50 μL of the supernatant was transferred into the corresponding 96-well plate. Subsequently, 50 μL of LDH-reaction mixture prepared according to the manufacturer’s instructions (Invitrogen) was added to each well. Incubation was conducted in darkness for 30 min at room temperature. Next, stop solution was added and absorbance was measured at 490 nm (A490) using a plate reader (Spectra Max iD3, Molecular Devices). Cytotoxicity was determined as follows: cytotoxicity (%) = [(compound LDH activity – spontaneous LDH activity)/(maximum LDH activity – spontaneous LDH activity)] × 100. The maximum LDH activity was prepared by treating cells with lysis buffer. […]

Series [2] relates to Salmonella typhimurium TA100. As to conditions: without S9 fraction. How it is done:
Ames microplate fluctuation protocol (MPF) assay was performed with Salmonella typhimurium strain TA100, enabling the detection base substitution mutations. Bacterial strain and exposure and indicator medium were purchased from Xenometrix AG (Allschwil, Switzerland). The mutagenic potential of tested structures was evaluated by incubation of bacteria, incapable of producing histidine, with particular concentration of test compounds for 90 min in exposure medium, containing limited amount of histidine. The occurrence of reversion events to histidine prototrophy was observed as a growth of bacteria in the indicator medium without histidine after 48 h of incubation in room temperature. Bacterial growth in 384-well plates was visualized by color change of medium from violet to yellow due to addition of pH indicator dye. Compound was classified as mutagenic, if the fold increase in number of positive wells over the medium control baseline was greater than 2.0. The solvent control baseline was defined as the mean number of positive wells in the negative control sample, increased by one standard deviation. 1% DMSO in media was used as a negative and 4-nitroquinoline N-oxide (NQNO) as positive control. The experiment was performed in triplicate. Fraction S9 was not added.

T3 sequence (P08684 whole entry): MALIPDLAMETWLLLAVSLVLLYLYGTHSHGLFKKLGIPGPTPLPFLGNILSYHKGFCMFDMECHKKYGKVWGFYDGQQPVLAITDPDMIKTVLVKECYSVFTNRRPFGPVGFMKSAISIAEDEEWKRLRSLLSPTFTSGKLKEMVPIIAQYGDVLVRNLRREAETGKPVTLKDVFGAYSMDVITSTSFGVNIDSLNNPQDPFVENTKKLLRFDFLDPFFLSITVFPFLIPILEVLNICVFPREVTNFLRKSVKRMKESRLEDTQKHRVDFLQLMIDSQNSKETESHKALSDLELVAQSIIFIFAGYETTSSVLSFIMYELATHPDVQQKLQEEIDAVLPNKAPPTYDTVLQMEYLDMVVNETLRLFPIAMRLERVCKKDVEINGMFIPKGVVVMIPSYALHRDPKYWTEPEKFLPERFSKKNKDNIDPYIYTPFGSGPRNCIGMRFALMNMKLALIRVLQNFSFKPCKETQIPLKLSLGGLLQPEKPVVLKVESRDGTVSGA

In general, inhibition refers to the percentage by which the read-out fell short of the control. High values mean strong suppression, low ones little suppression. What is called IC50 is the concentration that gives 50% inhibition. A high value points to weaker potency. As to `O=C(N[C@@H]1CCNC1)c1ccn(S(=O)(=O)c2cccc(Cl)c2)c1-c1ccc(F)cc1` [Compound 27, (R)-2-(4-Fluorophenyl)-1-[(3-chlorophenyl)sulfonyl]-N-(pyrrolidin-3-yl)-1H-pyrrole-3-carboxamide], the inhibition at 1 µM in series [1] was 10%; at α1A adrenoreceptor, 15%. The compound further yielded an IC50 on CYP3A4 of 69 nM. Further, the “cell membrane integrity (LDH test)” value in the series on HepG2 cells was “did not affect the cell membrane integrity”. Moreover, the “mutagenicity (Ames test)” value in series [2] is “non-mutagenic”.
